Test results taken from article PMC6407917, “Identification of GSK3186899/DDD853651 as a Preclinical Development Candidate for the Treatment of Visceral Leishmaniasis” (Journal of Medicinal Chemistry, 2018).

Tests used:
Test in all cases: biochemical
Set-up in all cases: species or system HEK293/K-562/placenta mixed human extract; Kinobeads chemoproteomic competition binding, quantified by TMT LC-MS/MS, dose response up to 20 uM
[1] = target: MET (Homo sapiens, UniProt P08581)
[2] = target: ABL2 (Homo sapiens, UniProt P42684)
[3] = target: CDC7 (Homo sapiens, UniProt O00311)
[4] = target: AURKC (Homo sapiens, UniProt Q9UQB9)
[5] = target: PRKCQ (Homo sapiens, UniProt Q04759)
[6] = target: MAP2K4 (Homo sapiens, UniProt P45985)
[7] = target: JAK1 (Homo sapiens, UniProt P23458)
[8] = target: SRC (Homo sapiens, UniProt P12931)
[9] = target: MELK (Homo sapiens, UniProt Q14680)
[10] = target: TESK2 (Homo sapiens, UniProt Q96S53)
[11] = target: IKBKG (Homo sapiens, UniProt Q9Y6K9)
[12] = target: PRKAA1 (Homo sapiens, UniProt Q13131)
[13] = target: MAP2K3 (Homo sapiens, UniProt P46734)
[14] = target: PRKG1 (Homo sapiens, UniProt Q13976)
[15] = target: STK3 (Homo sapiens, UniProt Q13188)
[16] = target: MAST3 (Homo sapiens, UniProt O60307)
[17] = target: IRAK4 (Homo sapiens, UniProt Q9NWZ3)
[18] = target: ITK (Homo sapiens, UniProt Q08881)
[19] = target: ADK (Homo sapiens, UniProt P55263)
[20] = target: PRKAG2 (Homo sapiens, UniProt Q9UGJ0)
[21] = target: PAK4 (Homo sapiens, UniProt O96013)
PAK4, sequence (O96013 whole entry): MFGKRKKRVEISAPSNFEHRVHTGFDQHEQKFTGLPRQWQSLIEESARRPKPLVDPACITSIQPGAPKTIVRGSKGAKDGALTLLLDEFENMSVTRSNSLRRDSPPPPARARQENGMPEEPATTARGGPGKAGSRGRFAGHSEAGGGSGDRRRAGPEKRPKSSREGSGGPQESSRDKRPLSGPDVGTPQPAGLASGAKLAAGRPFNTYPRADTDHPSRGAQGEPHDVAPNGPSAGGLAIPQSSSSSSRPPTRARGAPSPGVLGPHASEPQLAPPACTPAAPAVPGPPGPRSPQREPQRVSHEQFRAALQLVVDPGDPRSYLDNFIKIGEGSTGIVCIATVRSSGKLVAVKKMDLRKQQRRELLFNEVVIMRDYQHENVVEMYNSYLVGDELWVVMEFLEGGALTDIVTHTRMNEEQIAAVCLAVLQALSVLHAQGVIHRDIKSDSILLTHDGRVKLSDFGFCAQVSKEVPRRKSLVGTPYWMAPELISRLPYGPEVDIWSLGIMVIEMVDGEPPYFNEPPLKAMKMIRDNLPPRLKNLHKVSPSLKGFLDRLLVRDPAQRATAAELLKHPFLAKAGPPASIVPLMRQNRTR

ABL2, sequence (P42684 whole entry): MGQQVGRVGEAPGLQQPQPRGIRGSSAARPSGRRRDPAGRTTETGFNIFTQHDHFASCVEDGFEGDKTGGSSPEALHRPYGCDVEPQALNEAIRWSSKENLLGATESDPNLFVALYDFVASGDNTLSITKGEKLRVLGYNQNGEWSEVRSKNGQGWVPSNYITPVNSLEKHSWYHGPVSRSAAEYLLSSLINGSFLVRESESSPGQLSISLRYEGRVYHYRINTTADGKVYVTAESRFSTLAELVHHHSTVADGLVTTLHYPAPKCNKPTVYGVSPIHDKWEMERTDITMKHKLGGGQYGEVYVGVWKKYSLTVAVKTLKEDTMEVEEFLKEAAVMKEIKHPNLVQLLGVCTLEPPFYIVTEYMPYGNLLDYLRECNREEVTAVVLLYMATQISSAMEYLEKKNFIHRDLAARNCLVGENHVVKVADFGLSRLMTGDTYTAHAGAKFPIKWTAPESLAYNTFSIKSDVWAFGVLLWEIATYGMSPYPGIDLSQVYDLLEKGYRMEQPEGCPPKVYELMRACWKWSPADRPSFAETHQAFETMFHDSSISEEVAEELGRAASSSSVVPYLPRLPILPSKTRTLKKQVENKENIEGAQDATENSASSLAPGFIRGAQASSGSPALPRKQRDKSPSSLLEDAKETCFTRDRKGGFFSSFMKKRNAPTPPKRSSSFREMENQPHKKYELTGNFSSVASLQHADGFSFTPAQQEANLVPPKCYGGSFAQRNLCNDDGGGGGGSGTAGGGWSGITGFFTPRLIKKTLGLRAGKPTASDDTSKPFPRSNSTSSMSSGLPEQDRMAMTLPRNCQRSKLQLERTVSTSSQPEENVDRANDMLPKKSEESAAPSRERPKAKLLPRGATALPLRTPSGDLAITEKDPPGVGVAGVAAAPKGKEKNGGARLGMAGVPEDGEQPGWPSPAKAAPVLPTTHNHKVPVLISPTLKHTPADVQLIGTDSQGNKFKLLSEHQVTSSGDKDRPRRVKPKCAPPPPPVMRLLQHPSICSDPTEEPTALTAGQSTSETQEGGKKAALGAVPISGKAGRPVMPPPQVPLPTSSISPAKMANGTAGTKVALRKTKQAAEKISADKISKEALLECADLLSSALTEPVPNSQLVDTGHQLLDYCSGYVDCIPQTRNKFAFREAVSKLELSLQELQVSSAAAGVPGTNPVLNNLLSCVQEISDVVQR
ITK, sequence (Q08881 whole entry): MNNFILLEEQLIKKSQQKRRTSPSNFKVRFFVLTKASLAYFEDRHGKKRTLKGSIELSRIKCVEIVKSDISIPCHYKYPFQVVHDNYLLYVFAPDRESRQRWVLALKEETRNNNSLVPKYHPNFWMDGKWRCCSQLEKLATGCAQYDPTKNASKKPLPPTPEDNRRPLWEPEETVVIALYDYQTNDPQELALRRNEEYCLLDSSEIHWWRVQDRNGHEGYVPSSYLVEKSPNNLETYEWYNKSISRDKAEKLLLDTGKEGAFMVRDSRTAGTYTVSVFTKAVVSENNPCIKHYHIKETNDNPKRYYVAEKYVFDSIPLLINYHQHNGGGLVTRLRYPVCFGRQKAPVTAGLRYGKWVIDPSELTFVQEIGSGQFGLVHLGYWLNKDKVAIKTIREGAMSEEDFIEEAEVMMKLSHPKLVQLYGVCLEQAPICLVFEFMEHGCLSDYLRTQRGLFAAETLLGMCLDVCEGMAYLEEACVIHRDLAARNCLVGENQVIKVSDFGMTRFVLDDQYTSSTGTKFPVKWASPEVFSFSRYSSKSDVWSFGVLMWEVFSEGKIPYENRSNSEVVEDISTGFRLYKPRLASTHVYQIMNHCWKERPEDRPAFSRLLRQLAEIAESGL
ADK, sequence (P55263 whole entry): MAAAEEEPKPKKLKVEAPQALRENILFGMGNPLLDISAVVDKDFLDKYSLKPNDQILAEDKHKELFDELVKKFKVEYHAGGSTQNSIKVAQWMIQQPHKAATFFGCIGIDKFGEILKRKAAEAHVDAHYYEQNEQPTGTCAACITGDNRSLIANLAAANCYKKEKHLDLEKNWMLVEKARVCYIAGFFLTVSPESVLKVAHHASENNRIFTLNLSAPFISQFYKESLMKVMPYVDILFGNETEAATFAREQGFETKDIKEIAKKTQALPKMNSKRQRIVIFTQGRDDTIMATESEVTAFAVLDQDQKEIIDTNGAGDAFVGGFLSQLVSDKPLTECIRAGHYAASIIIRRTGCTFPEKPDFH
TESK2, sequence (Q96S53 whole entry): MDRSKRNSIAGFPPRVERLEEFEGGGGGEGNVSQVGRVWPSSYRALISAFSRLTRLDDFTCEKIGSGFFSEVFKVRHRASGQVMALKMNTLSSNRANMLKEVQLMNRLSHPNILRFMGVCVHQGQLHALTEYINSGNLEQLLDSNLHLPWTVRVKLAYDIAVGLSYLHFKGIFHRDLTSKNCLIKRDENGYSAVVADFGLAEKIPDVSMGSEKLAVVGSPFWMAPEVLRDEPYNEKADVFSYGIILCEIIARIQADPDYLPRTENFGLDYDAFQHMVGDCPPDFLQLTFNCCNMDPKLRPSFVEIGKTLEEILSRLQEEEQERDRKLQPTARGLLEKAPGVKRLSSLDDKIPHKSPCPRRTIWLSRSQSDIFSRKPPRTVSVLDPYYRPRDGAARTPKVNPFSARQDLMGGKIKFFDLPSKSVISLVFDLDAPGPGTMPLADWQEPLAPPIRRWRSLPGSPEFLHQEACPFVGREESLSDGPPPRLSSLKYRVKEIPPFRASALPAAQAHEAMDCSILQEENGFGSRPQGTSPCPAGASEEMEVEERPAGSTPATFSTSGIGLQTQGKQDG
PRKAA1, sequence (Q13131 whole entry): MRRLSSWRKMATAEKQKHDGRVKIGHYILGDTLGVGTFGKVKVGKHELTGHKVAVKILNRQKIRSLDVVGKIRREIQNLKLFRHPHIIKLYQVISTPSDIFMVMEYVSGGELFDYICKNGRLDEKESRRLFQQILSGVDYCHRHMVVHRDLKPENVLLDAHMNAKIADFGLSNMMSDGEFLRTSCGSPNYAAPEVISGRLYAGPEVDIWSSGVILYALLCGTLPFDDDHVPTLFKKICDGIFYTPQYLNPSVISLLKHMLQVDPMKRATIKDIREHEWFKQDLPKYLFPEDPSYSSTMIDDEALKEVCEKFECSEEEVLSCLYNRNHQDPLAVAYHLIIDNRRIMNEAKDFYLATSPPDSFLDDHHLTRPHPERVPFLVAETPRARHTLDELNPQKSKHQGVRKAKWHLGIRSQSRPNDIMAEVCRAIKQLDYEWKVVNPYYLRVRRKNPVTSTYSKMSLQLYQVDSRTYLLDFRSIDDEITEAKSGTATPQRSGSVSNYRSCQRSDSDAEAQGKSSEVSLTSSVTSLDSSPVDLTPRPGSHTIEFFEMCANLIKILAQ
PRKCQ, sequence (Q04759 whole entry): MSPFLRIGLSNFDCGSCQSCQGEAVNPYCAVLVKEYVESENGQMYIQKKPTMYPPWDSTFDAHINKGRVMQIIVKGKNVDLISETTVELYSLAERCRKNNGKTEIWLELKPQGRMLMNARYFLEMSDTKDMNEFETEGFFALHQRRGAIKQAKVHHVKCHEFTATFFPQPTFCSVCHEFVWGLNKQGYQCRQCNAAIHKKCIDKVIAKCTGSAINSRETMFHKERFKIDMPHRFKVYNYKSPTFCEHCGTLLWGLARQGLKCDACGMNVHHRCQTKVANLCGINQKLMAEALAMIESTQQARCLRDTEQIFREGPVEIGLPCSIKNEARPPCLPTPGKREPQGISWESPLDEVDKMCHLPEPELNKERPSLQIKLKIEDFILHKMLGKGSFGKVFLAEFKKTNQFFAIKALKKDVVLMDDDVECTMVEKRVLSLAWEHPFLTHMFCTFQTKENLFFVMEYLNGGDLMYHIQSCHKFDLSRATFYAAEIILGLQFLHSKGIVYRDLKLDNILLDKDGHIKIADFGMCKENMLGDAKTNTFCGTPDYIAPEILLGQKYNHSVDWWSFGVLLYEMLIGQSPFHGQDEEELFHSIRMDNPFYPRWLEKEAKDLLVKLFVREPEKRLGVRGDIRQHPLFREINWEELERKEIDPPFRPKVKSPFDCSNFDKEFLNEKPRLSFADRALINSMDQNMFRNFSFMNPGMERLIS
MAP2K3, sequence (P46734 whole entry): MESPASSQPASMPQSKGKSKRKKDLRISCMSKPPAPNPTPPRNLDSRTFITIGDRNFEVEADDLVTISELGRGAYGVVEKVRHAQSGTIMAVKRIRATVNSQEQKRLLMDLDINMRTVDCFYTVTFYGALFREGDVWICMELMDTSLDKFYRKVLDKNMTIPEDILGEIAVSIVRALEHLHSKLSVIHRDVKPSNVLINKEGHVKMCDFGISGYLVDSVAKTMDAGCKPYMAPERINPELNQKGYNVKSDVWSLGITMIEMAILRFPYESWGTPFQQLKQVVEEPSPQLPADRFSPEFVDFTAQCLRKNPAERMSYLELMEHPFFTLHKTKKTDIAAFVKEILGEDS

IC50 [1]: ≥ 20 µM
IC50 [2]: ≥ 20 µM
IC50 [3]: ≥ 20 µM
IC50 [4]: ≥ 20 µM
IC50 [5]: ≥ 20 µM
IC50 [6]: ≥ 20 µM
IC50 [7]: ≥ 20 µM
IC50 [8]: ≥ 20 µM
IC50 [9]: ≥ 20 µM
IC50 [10]: ≥ 20 µM
IC50 [11]: ≥ 20 µM
IC50 [12]: ≥ 20 µM
IC50 [13]: ≥ 20 µM
IC50 [14]: ≥ 20 µM
IC50 [15]: ≥ 20 µM
IC50 [16]: ≥ 20 µM
IC50 [17]: ≥ 20 µM
IC50 [18]: ≥ 20 µM
IC50 [19]: ≥ 20 µM
IC50 [20]: ≥ 20 µM
IC50 [21]: ≥ 20 µM
SMILES: COc1ccccc1-c1n[nH]c2nc(N[C@H]3CC[C@H](NS(=O)(=O)CCC(F)(F)F)CC3)nc(OC)c12 [compound 31, 3,3,3-Trifluoro-N-(trans-4-((4-methoxy-3-(2-methoxyphenyl)-1H-pyrazolo[3,4-d]pyrimidin-6-yl)amino)cyclohexyl)propane-1-sulfonamide]
